According to PMC1664607 (PLoS Medicine, 2006):
Several values for one entry are separate records, joined by “and”; a condition that tells them apart may be missing. Equal values may be shown once.

System: clinically isolated M. tuberculosis
Assay: microbe, parasite or virus in culture
Assay type: cell-based

**Q.** C[C@]1(COc2ccc(N3CCC(Oc4ccc(OC(F)(F)F)cc4)CC3)cc2)Cn2cc([N+](=O)[O-])nc2O1 [OPC-67683, (R)-2-methyl-6-nitro-2-(4-[4-(4-trifluoromethoxyphenoxy)piperidin-1-yl]phenoxymethyl}-2,3-dihydroimidazo[2,1-b]oxazole] was tested. Which “Cross-resistance with the currently used anti-TB drugs” value did it give?
**A.** no cross-resistance

**Q.** What about the MIC90 of the same molecule?
**A.** 0.0134 µg/mL and 0.01221 µg/mL and 0.01279 µg/mL and 0.01341 µg/mL
